Earlier results, collected in patent US20050009793A1, “Treatment of liver disease with active vitamin D compounds” (Novacea, Inc., priority 2002, published 2005).

Conditions: in vivo

C=C1/C(=C/C=C2\CCC[C@]3(C)C([C@H](C)CC#CC(O)(C(F)(F)F)C(F)(F)F)=CC[C@@H]23)C[C@@H](O)C[C@@H]1O [Ro24-5531]
Hypercalcemic effect compared to calcitriol: reduced hypercalcemic effect

C=C1/C(=C\C=C2/CCC[C@]3(C)C([C@H](C)CC#CC(C)(C)O)=CC[C@@H]23)C[C@@H](O)C[C@@H]1O [Ro23-7553]
Hypercalcemic effect compared to calcitriol: reduced hypercalcemic effect
